Activity calls are given as the source filed them. The rule behind the calls is not given here.
System: rodent lifetime carcinogenesis bioassay, tumor incidence TD50
Experiment: carcinogenic potency in animals, long-term in vivo studies, CPDB compilation (AID 1745844)

ClC1=C(Cl)C2(Cl)C3C(Cl)OC(Cl)C3C1(Cl)C2(Cl)Cl (stereo not given) was tested, and the carcinogen call (mouse, strain B6AKF1, females, oral dosing, site: any site (literature study), lesion: several types, types named in the paper, dosed 76 weeks, study length 76 weeks) was “negative (inactive)”, the carcinogen call (mouse, strain B6AKF1, females, oral dosing, site: liver, lesion: hepatoma, dosed 76 weeks, study length 76 weeks) was “negative (inactive)” and the carcinogen call (mouse, strain B6AKF1, females, oral dosing, site: lung, lesion: adenoma, dosed 76 weeks, study length 76 weeks) was “negative (inactive)”. The TD50 (mouse, strain B6AKF1, males, oral dosing, site: any site (literature study), lesion: several types, types named in the paper, dosed 76 weeks, study length 76 weeks) was 0.136 mg/kg/day (inactive), the carcinogen call (mouse, strain B6AKF1, males, oral dosing, site: liver, lesion: hepatoma, dosed 76 weeks, study length 76 weeks) was “negative (inactive)” and the TD50 (mouse, strain B6AKF1, males, oral dosing, site: lung, lesion: adenoma, dosed 76 weeks, study length 76 weeks) was 0.146 mg/kg/day (inactive). The TD50 (mouse, strain B6C3F1, females, oral dosing, site: any site (literature study), lesion: several types, types named in the paper, dosed 76 weeks, study length 76 weeks) was 0.277 mg/kg/day (inactive), the carcinogen call (mouse, strain B6C3F1, females, oral dosing, site: liver, lesion: hepatoma, dosed 76 weeks, study length 76 weeks) was “negative (inactive)” and the TD50 (mouse, strain B6C3F1, females, oral dosing, site: lung, lesion: adenoma, dosed 76 weeks, study length 76 weeks) was 0.571 mg/kg/day (inactive). The TD50 (mouse, strain B6C3F1, males, oral dosing, site: any site (literature study), lesion: several types, types named in the paper, dosed 76 weeks, study length 76 weeks) was 0.242 mg/kg/day (inactive), the TD50 (mouse, strain B6C3F1, males, oral dosing, site: liver, lesion: hepatoma, dosed 76 weeks, study length 76 weeks) was 0.5 mg/kg/day (inactive) and the TD50 (mouse, strain B6C3F1, males, oral dosing, site: lung, lesion: adenoma, dosed 76 weeks, study length 76 weeks) was 0.5 mg/kg/day (inactive).
Work on S=[Se] yielded a TD50 (mouse, strain B6C3F1, females, by gavage, site: any site (literature study), lesion: several types, types named in the paper, dosed 103 weeks, study length 104 weeks) of 69.7 mg/kg/day, a TD50 (mouse, strain B6C3F1, females, by gavage, site: liver + lung, lesion: hepatocellular adenoma + hepatocellular carcinoma + alveolar/bronchiolar adenoma + alveolar/bronchiolar carcinoma, dosed 103 weeks, study length 104 weeks) of 46.8 mg/kg/day and a TD50 (mouse, strain B6C3F1, females, by gavage, site: liver, lesion: hepatocellular adenoma + hepatocellular carcinoma + neoplastic nodule, dosed 103 weeks, study length 104 weeks) of 69.3 mg/kg/day. The TD50 (mouse, strain B6C3F1, females, by gavage, site: liver, lesion: hepatocellular adenoma + hepatocellular carcinoma, dosed 103 weeks, study length 104 weeks) was 69.3 mg/kg/day, the TD50 (mouse, strain B6C3F1, females, by gavage, site: liver, lesion: hepatocellular carcinoma, dosed 103 weeks, study length 104 weeks) was 85.2 mg/kg/day and the TD50 (mouse, strain B6C3F1, females, by gavage, site: lung, lesion: alveolar/bronchiolar adenoma + alveolar/bronchiolar carcinoma, dosed 103 weeks, study length 104 weeks) was 137 mg/kg/day. The TD50 (mouse, strain B6C3F1, females, by gavage, site: lung, lesion: alveolar/bronchiolar carcinoma, dosed 103 weeks, study length 104 weeks) was 433 mg/kg/day, the TD50 (mouse, strain B6C3F1, males, by gavage, site: any site (literature study), lesion: several types, types named in the paper, dosed 103 weeks, study length 104 weeks) was 735 mg/kg/day (inactive) and the TD50 (mouse, strain B6C3F1, males, by gavage, site: liver, lesion: hepatocellular adenoma + hepatocellular carcinoma + neoplastic nodule, dosed 103 weeks, study length 104 weeks) was 202 mg/kg/day. The TD50 (mouse, strain B6C3F1, males, by gavage, site: lung, lesion: alveolar/bronchiolar adenoma + alveolar/bronchiolar carcinoma, dosed 103 weeks, study length 104 weeks) was 183 mg/kg/day, the TD50 (rat, strain Fischer 344, females, by gavage, site: any site (literature study), lesion: several types, types named in the paper, dosed 103 weeks, study length 104 weeks) was 19.3 mg/kg/day and the TD50 (rat, strain Fischer 344, females, by gavage, site: liver, lesion: hepatocellular adenoma + hepatocellular carcinoma + neoplastic nodule, dosed 103 weeks, study length 104 weeks) was 6.14 mg/kg/day. It also gave a TD50 (rat, strain Fischer 344, females, by gavage, site: liver, lesion: hepatocellular carcinoma + neoplastic nodule, dosed 103 weeks, study length 104 weeks) of 6.14 mg/kg/day, a TD50 (rat, strain Fischer 344, females, by gavage, site: liver, lesion: hepatocellular carcinoma, dosed 103 weeks, study length 104 weeks) of 13.2 mg/kg/day and a TD50 (rat, strain Fischer 344, males, by gavage, site: any site (literature study), lesion: several types, types named in the paper, dosed 103 weeks, study length 104 weeks) of 25 mg/kg/day. The TD50 (rat, strain Fischer 344, males, by gavage, site: liver, lesion: hepatocellular adenoma + hepatocellular carcinoma + neoplastic nodule, dosed 103 weeks, study length 104 weeks) was 11.5 mg/kg/day, the TD50 (rat, strain Fischer 344, males, by gavage, site: liver, lesion: hepatocellular carcinoma + neoplastic nodule, dosed 103 weeks, study length 104 weeks) was 11.5 mg/kg/day and the TD50 (rat, strain Fischer 344, males, by gavage, site: liver, lesion: hepatocellular carcinoma, dosed 103 weeks, study length 104 weeks) was 21 mg/kg/day.
O=C(OOC(=O)c1ccccc1)c1ccccc1 was tested, and the carcinogen call (mouse, strain albino, both sexes, in feed, site: liver, lesion: hepatoma, dosed 80 weeks, study length 80 weeks) was “negative (inactive)”, the carcinogen call (mouse, strain albino, both sexes, in feed, site: lung, lesion: adenoma, dosed 80 weeks, study length 80 weeks) was “negative (inactive)” and the TD50 (rat, strain albino, both sexes, in feed, site: any site (literature study), lesion: benign tumor, dosed 120 weeks, study length 120 weeks) was 6480 mg/kg/day (inactive). The TD50 (rat, strain albino, both sexes, in feed, site: any site (literature study), lesion: malignant tumor, dosed 120 weeks, study length 120 weeks) was 15600 mg/kg/day (inactive) and the carcinogen call (rat, strain albino, both sexes, in feed, site: liver, lesion: malignant hepatoma, dosed 120 weeks, study length 120 weeks) was “negative (inactive)”.

— PubChem BioAssay AID1745844 (Carcinogenic Potency Database (CPDB), 2022)
